Reference: patent US9708308B2, “Factor IXa inhibitors” (Merck Sharp & Dohme Corp., priority 2012, dated 2017)

target: Factor IXa (Homo sapiens, UniProt P00740); test: Determination of inhibitory activity against Factor IXa (cleavage of fluorescent peptide substrate); assay type: biochemical; conditions: cleavage of fluorescent peptide CH3SO2-D-CHG-Gly-Arg-AFC, release of AFC; read-out: FIXa IC50
Outline: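 Factor IXa activity followed via cleavage of CH3SO2-D-CHG-Gly-Arg-AFC, releasing AFC. Fluorescence read at excitation 405 nm, emission 510 nm.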

Sequence of Factor IXa (P00740 227-461 limits assumed): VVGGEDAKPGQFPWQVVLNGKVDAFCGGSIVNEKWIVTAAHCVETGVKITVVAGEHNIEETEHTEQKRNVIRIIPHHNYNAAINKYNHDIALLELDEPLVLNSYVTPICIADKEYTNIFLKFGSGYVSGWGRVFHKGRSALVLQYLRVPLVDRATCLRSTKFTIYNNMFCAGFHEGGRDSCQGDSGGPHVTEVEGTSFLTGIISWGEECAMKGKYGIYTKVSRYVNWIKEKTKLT
Sequence of Factor IXa (P00740 47-191 partner limits assumed): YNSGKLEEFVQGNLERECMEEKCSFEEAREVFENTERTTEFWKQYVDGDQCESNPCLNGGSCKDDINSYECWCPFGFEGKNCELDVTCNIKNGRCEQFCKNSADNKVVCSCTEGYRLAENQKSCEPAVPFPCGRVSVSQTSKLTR

`C[C@](O)(C(=O)Nc1ccc2c(N)noc2c1)[C@H]1OCCN(c2ccc(-c3ccnc(C#N)c3)o2)C1=O` [Example 61, (R)—N-(3-aminobenzo[d]isoxazol-6-yl)-2-((R)-4-(5-(2-cyanopyridin-4-yl)furan-2-yl)-3-oxomorpholin-2-yl)-2-hydroxypropanamide] and `COc1cc(-c2ccc(N3CCO[C@H]([C@@](C)(O)C(=O)Nc4ccc5c(N)noc5c4)C3=O)o2)ccn1` [Example 63, (R)—N-(3-aminobenzo[d]isoxazol-6-yl)-2-hydroxy-2-((R)-4-(5-(2-methoxypyridin-4-yl)furan-2-yl)-3-oxomorpholin-2-yl)propanamide] are within 1.5-fold of each other in IC50: 93 nM for the first, 131 nM for the second.

First: C[C@](O)(C(=O)Nc1ccc2c(N)noc2c1)[C@H]1OCCN(c2ccc(-c3ccnc(C(F)(F)F)c3)o2)C1=O [Example 62, (R)—N-(3-aminobenzo[d]isoxazol-6-yl)-2-hydroxy-2-((R)-3-oxo-4-(5-(2-(trifluoromethyl)pyridin-4-yl)furan-2-yl)morpholin-2-yl)propanamide]
Second: COc1nccc(-c2ccc(N3CCO[C@H]([C@@](C)(O)C(=O)Nc4ccc5c(N)noc5c4)C3=O)o2)n1 [Example 64, (R)—N-(3-aminobenzo[d]isoxazol-6-yl)-2-hydroxy-2-((R)-4-(5-(2-methoxypyrimidin-4-yl)furan-2-yl)-3-oxomorpholin-2-yl)propanamide]
The IC50 of the first is 2.9-fold lower: 43.5 nM for the first, 124 nM for the second. The first is the more potent here.

Going from `CC(C)(O)c1cccc(N2CCO[C@H]([C@@](C)(O)C(=O)Nc3ccc4c(N)noc4c3)C2=O)n1` [Example 65, (R)—N-(3-aminobenzo[d]isoxazol-6-yl)-2-hydroxy-2-((R)-4-(6-(2-hydroxypropan-2-yl)pyridin-2-yl)-3-oxomorpholin-2-yl)propanamide] to `Cc1nn(C)c2nc(N3CCO[C@H]([C@@](C)(O)C(=O)Nc4ccc5c(N)noc5c4)C3=O)ccc12` [Example 70, (R)—N-(3-aminobenzo[d]isoxazol-6-yl)-2-((R)-4-(1,3-dimethyl-1H-pyrazolo[3,4-b]pyridin-6-yl)-3-oxomorpholin-2-yl)-2-hydroxypropanamide], the IC50 falls from 468 nM to 195 nM (2.4-fold).

Compared with `C[C@](O)(C(=O)Nc1ccc2c(N)noc2c1)[C@H]1OCCN(c2cccc(-c3ccnnc3)n2)C1=O` [Example 67, (R)—N-(3-aminobenzo[d]isoxazol-6-yl)-2-hydroxy-2-((R)-3-oxo-4-(6-(pyridazin-4-yl)pyridin-2-yl)morpholin-2-yl)propanamide], `C[C@](O)(C(=O)Nc1ccc2c(N)noc2c1)[C@H]1OCCN(c2ccc3ccncc3n2)C1=O` [Example 69, (R)-2-((R)-4-(1,7-naphthyridin-2-yl)-3-oxomorpholin-2-yl)-N-(3-aminobenzo[d]isoxazol-6-yl)-2-hydroxypropanamide] is 5.7-fold higher in IC50: 66.9 nM for the first, 384 nM for the second. The first is the more potent here.

Compared with `C[C@](O)(C(=O)Nc1ccc2c(N)noc2c1)[C@H]1OCCN(c2ccc3cc(C(F)(F)F)ccc3n2)C1=O` [Example 68, (R)—N-(3-aminobenzo[d]isoxazol-6-yl)-2-hydroxy-2-((R)-3-oxo-4-(6-(trifluoromethyl)quinolin-2-yl)morpholin-2-yl)propanamide], `C[C@](O)(C(=O)Nc1ccc2c(N)noc2c1)[C@H]1OCCN(c2cc3n(n2)CCC3)C1=O` [Example 71, (R)—N-(3-aminobenzo[d]isoxazol-6-yl)-2-((R)-4-(5,6-dihydro-4H-pyrrolo[1,2-b]pyrazol-2-yl)-3-oxomorpholin-2-yl)-2-hydroxypropanamide] is 1.6-fold lower in IC50: 574 nM for the first, 368 nM for the second.

First: C[C@]1([C@@H](O)C(=O)Nc2ccc3c(N)noc3c2)OCCN(c2cccc(C(F)(F)F)n2)C1=O [Example 72, (R)—N-(3-Aminobenzo[d]isoxazol-6-yl)-2-hydroxy-2-((R)-2-methyl-3-oxo-4-(6-(trifluoromethyl)pyridin-2-yl)morpholin-2-yl)acetamide]
Second: CC[C@]1([C@@H](O)C(=O)Nc2ccc3c(N)noc3c2)OCCN(c2cccc(C(F)(F)F)n2)C1=O [Example 74, (R)—N-(3-Aminobenzo[d]isoxazol-6-yl)-2-((R)-2-ethyl-3-oxo-4-(6-(trifluoromethyl)pyridin-2-yl)morpholin-2-yl)-2-hydroxyacetamide]
The IC50 of the first is 32-fold lower: 12.9 nM for the first, 408 nM for the second.

Compared with `C[C@]1([C@@H](O)C(=O)Nc2ccc3c(N)noc3c2)OCCN(c2ccn(-c3ccnc(C#N)c3)n2)C1=O` [Example 73, (R)—N-(3-Aminobenzo[d]isoxazol-6-yl)-2-((R)-4-(1-(2-cyanopyridin-4-yl)-1H-pyrazol-3-yl)-2-methyl-3-oxomorpholin-2-yl)-2-hydroxyacetamide], `C[C@]1([C@@H](O)C(=O)Nc2ccc3c(N)noc3c2)OCCN(c2ccn(-c3cncc(C#N)c3)n2)C1=O` [Example 88, (R)—N-(3-aminobenzo[d]isoxazol-6-yl)-2-((R)-4-(1-(5-cyanopyridin-3-yl)-1H-pyrazol-3-yl)-2-methyl-3-oxomorpholin-2-yl)-2-hydroxyacetamide] is 14-fold higher in IC50: 66.1 nM for the first, 950 nM for the second. The first is the more potent here.

First: C[C@]1([C@@H](O)C(=O)Nc2ccc3c(N)noc3c2)OCCN(c2ccn(-c3ccc(=O)n(C(F)F)c3)n2)C1=O [Example 76, (R)—N-(3-Aminobenzo[d]isoxazol-6-yl)-2-((R)-4-(1-(1-(difluoromethyl)-6-oxo-1,6-dihydropyridin-3-yl)-1H-pyrazol-3-yl)-2-methyl-3-oxomorpholin-2-yl)-2-hydroxyacetamide]
Second: Cc1cc(N2CCO[C@](C)([C@@H](O)C(=O)Nc3ccc4c(N)noc4c3)C2=O)nn1-c1ccc(=O)n(C(F)F)c1 [Example 77, (R)—N-(3-Aminobenzo[d]isoxazol-6-yl)-2-((R)-4-(1-(1-(difluoromethyl)-6-oxo-1,6-dihydropyridin-3-yl)-5-methyl-1H-pyrazol-3-yl)-2-methyl-3-oxomorpholin-2-yl)-2-hydroxyacetamide]
The IC50 of the first is 2.4-fold lower: 11.1 nM for the first, 26.5 nM for the second.

First: C[C@]1([C@@H](O)C(=O)Nc2ccc3c(N)noc3c2)OCCN(c2nn(-c3ccc(=O)n(C(F)F)c3)cc2F)C1=O [Example 78, (R)—N-(3-Aminobenzo[d]isoxazol-6-yl)-2-((R)-4-(1-(1-(difluoromethyl)-6-oxo-1,6-dihydropyridin-3-yl)-4-fluoro-1H-pyrazol-3-yl)-2-methyl-3-oxomorpholin-2-yl)-2-hydroxyacetamide]
Second: C[C@]1([C@@H](O)C(=O)Nc2ccc3c(N)noc3c2)OCCN(c2ccn(-c3ccc(F)cc3)n2)C1=O [Example 79, (R)—N-(3-aminobenzo[d]isoxazol-6-yl)-2-((R)-4-(1-(4-fluorophenyl)-1H-pyrazol-3-yl)-2-methyl-3-oxomorpholin-2-yl)-2-hydroxyacetamide]
The IC50 of the first is 6.6-fold lower: 25.6 nM for the first, 170 nM for the second.

Compared with `C[C@]1([C@@H](O)C(=O)Nc2ccc3c(N)noc3c2)OCCN(c2ccn(-c3ccc(C#N)cc3)n2)C1=O` [Example 80, (R)—N-(3-aminobenzo[d]isoxazol-6-yl)-2-((R)-4-(1-(4-cyanophenyl)-1H-pyrazol-3-yl)-2-methyl-3-oxomorpholin-2-yl)-2-hydroxyacetamide], `C[C@]1([C@@H](O)C(=O)Nc2ccc3c(N)noc3c2)OCCN(c2ccn(-c3ccc(Cl)cc3)n2)C1=O` [Example 83, (R)—N-(3-aminobenzo[d]isoxazol-6-yl)-2-((R)-4-(1-(4-chlorophenyl)-1H-pyrazol-3-yl)-2-methyl-3-oxomorpholin-2-yl)-2-hydroxyacetamide] is 14-fold higher in IC50: 25.3 nM for the first, 352 nM for the second. The first is the more potent here.

First: COC(=O)c1ccc(-n2ccc(N3CCO[C@](C)([C@@H](O)C(=O)Nc4ccc5c(N)noc5c4)C3=O)n2)cc1 [Example 81, methyl 4-(3-((R)-2-((R)-2-((3-aminobenzo[d]isoxazol-6-yl)amino)-1-hydroxy-2-oxoethyl)-2-methyl-3-oxomorpholino)-1H-pyrazol-1-yl)benzoate]
Second: C[C@]1([C@@H](O)C(=O)Nc2ccc3c(N)noc3c2)OCCN(c2ccn(-c3ccc(C(=O)O)cc3)n2)C1=O [Example 82, 4-(3-((R)-2-((R)-2-((3-aminobenzo[d]isoxazol-6-yl)amino)-1-hydroxy-2-oxoethyl)-2-methyl-3-oxomorpholino)-1H-pyrazol-1-yl)benzoic acid]
The IC50 of the first is 13-fold higher: 418 nM for the first, 32.8 nM for the second.

Going from `C[C@]1([C@@H](O)C(=O)Nc2ccc3c(N)noc3c2)OCCN(c2ccn(-c3ccc(S(C)(=O)=O)cc3)n2)C1=O` [Example 84, (R)—N-(3-aminobenzo[d]isoxazol-6-yl)-2-hydroxy-2-((R)-2-methyl-4-(1-(4-(methylsulfonyl)phenyl)-1H-pyrazol-3-yl)-3-oxomorpholin-2-yl)acetamide] to `C[C@]1([C@@H](O)C(=O)Nc2ccc3c(N)noc3c2)OCCN(c2ccn(-c3ccncc3)n2)C1=O` [Example 89, (R)—N-(3-aminobenzo[d]isoxazol-6-yl)-2-hydroxy-2-((R)-2-methyl-3-oxo-4-(1-(pyridin-4-yl)-1H-pyrazol-3-yl)morpholin-2-yl)acetamide], the IC50 rises from 13.2 nM to 1060 nM (80-fold).

Going from `C[C@]1([C@@H](O)C(=O)Nc2ccc3c(N)noc3c2)OCCN(c2ccn(-c3cccnc3)n2)C1=O` [Example 85, (R)—N-(3-aminobenzo[d]isoxazol-6-yl)-2-hydroxy-2-((R)-2-methyl-3-oxo-4-(1-(pyridin-3-yl)-1H-pyrazol-3-yl)morpholin-2-yl)acetamide] to `C[C@]1([C@@H](O)C(=O)Nc2ccc3c(N)noc3c2)OCCN(c2ccn(-c3ccncc3F)n2)C1=O` [Example 90, (R)—N-(3-aminobenzo[d]isoxazol-6-yl)-2-((R)-4-(1-(3-fluoropyridin-4-yl)-1H-pyrazol-3-yl)-2-methyl-3-oxomorpholin-2-yl)-2-hydroxyacetamide], the IC50 falls from 279 nM to 23.5 nM (12-fold). The second is the more potent here.

Going from `C[C@]1([C@@H](O)C(=O)Nc2ccc3c(N)noc3c2)OCCN(c2ccn(-c3ccc(C(F)(F)F)nc3)n2)C1=O` [Example 86, (R)—N-(3-aminobenzo[d]isoxazol-6-yl)-2-hydroxy-2-((R)-2-methyl-3-oxo-4-(1-(6-(trifluoromethyl)pyridin-3-yl)-1H-pyrazol-3-yl)morpholin-2-yl)acetamide] to `C[C@]1([C@@H](O)C(=O)Nc2ccc3c(N)noc3c2)OCCN(c2ccn(-c3cncc(C(F)(F)F)c3)n2)C1=O` [Example 87, (R)—N-(3-aminobenzo[d]isoxazol-6-yl)-2-hydroxy-2-((R)-2-methyl-3-oxo-4-(1-(5-(trifluoromethyl)pyridin-3-yl)-1H-pyrazol-3-yl)morpholin-2-yl)acetamide], the IC50 falls from 414 nM to 228 nM (1.8-fold).
